Source: patent US11617718B2, “Process for producing a nano-CBD microemulsion system” (priority 2019, dated 2023)
Like-named read-outs stand apart in the source and are kept apart here.

Columns and labels:
[1] = Water solubility / water-dispersing ability; type: physicochemical; details: FIG. 1, dispersed in water
Protocol: Producing a carrier: 70 ml of PEG was heated to 70° C. 70 ml of the carrier was added to the above-prepared dispersal phase, this dispersal phase continued to be heating to 100° C. and stirred at a speed of 600 rpm.

[2] = cited from earlier work

For C=C(C)[C@@H]1CCC(C)=C[C@H]1c1c(O)cc(CCCCC)cc1O [CBD, Cannabidiol], the water-dispersing ability [1] is given as “insoluble in water”, the half-life ([2]; in vivo) is given as “about 9 hours” and the bioavailability ([2]; used nasally (inhalantly)) is given as “about 31%”. For the same compound, the bioavailability ([2]; used orally) was 13-19%.
